Assay results from patent US4844897A, “Anti-tumor protease preparations” (Maeda; Hiroshi, priority 1985, dated 1989).

Assays:
[1] = system: African green monkey kidney (Epithelial cells); experiment: Toxicity of various proteases against cultured cells, serum-free; assay type: cell-based; settings: normal, absence of serum, 24-hour treatment
Experimental: (§1) Cell toxicity of various proteases against cultured cells and influences of serum on the cell toxicity:
(§2) The present inventors have investigated cell-killing effects of various proteases by adding the proteases to various cultured cells, and also at the same time the effect of serum on the cytotoxicity.
(§3) After 24 hours, the cells in the Lab Tech chambers were allowed to culture under three different condition. In group A, they were replaced in RPMI medium with 10% fetal calf serum containing different concentrations of test protease. In group B, the same medium with appropriate protease was used but devoid of serum; In group C, a control medium was used with 10% serum but without protease. One hour and 24 hours after the culturing cytotoxicity, observed microscopically, was determined by counting the number of cells and by morphological investigation.

[2] = system: Burkitt's lymphoma (Raji); experiment: as above; assay type: cell-based; settings: absence of serum, 24-hour treatment
Experimental: as §1, §2, §3

[3] = system: Cervical canal cancer (HeLa); experiment: as above; assay type: cell-based; settings: absence of serum, 24-hour treatment
Experimental: as §1, §2, §3

[4] = system: Human fetus lung fibroblast (HEL); experiment: as above; assay type: cell-based; settings: normal cell, absence of serum, 24-hour treatment
Experimental: as §1, §2, §3

Human fibroblast (WISH) = experiment: as above; assay type: cell-based; settings: normal cell, absence of serum, 24-hour treatment
Experimental: as §1, §2, §3

[5] = system: Human laryngeal carcinoma (HEp-2); experiment: as above; assay type: cell-based; settings: absence of serum, 24-hour treatment
Experimental: as §1, §2, §3

[6] = system: Human normal T-lymphocytes; experiment: as above; assay type: cell-based; settings: absence of serum, 24-hour treatment
Experimental: as §1, §2, §3

[7] = system: Human submaxillary gland tumor (HSG); experiment: as above; assay type: cell-based; settings: absence of serum, 24-hour treatment
Experimental: as §1, §2, §3

[8] = system: Monkey kidney fibroblast (Vero); experiment: as above; assay type: cell-based; settings: normal cell, absence of serum, 24-hour treatment
Experimental: as §1, §2, §3

[9] = system: Mouse leukemia (RL.male. 1); experiment: as above; assay type: cell-based; settings: absence of serum, 24-hour treatment
Experimental: as §1, §2, §3

[10] = system: Rat hepatocytes (Liver cells); experiment: as above; assay type: cell-based; settings: normal, absence of serum, 24-hour treatment
Experimental: as §1, §2, §3

Rat neuroblastoma (C6) = experiment: as above; assay type: cell-based; settings: absence of serum, 24-hour treatment
Experimental: as §1, §2, §3

HSG = experiment: Cytotoxicity induced by protease activity in the presence of serum; assay type: cell-based, human
Experimental: as §1, §2, §3

HeP2 = experiment: as above; assay type: cell-based, human
Experimental: as §1, §2, §3

WISH = experiment: as above; assay type: cell-based, human
Experimental: as §1, §2, §3

HeLa = experiment: as above; assay type: cell-based
Experimental: as §1, §2, §3

C6 = experiment: as above; assay type: cell-based, rat
Experimental: as §1, §2, §3

Vero = experiment: as above; assay type: cell-based, monkey
Experimental: as §1, §2, §3

HEL = experiment: as above; assay type: cell-based, human
Experimental: as §1, §2
as §3, with “A 0.5 ml aliquot of RPMI-1640 medium or Eagle's NEM medium containing 10% bovine fetal calf serum was placed in a Lab Tech plastic chamber of 8-well type, (Falcon Inc.), and suspensions of various tumor cells, each containing about 1×10^4 cells in 0.5 ml, were added thereto and cultured in an incubator at 37° C. in 5% CO2 (95% being air). After” for “After”
(§4) (b) Numerals show reciprocal number of dilution for obtaining the
(§5) equivalent effect after 24hour treatment on the basis of the effect of th […]

GMK = experiment: as above; assay type: cell-based, African green monkey
Experimental: as §1, §2
as §3, with “A 0.5 ml aliquot of RPMI-1640 medium or Eagle's NEM medium containing 10% bovine fetal calf serum was placed in a Lab Tech plastic chamber of 8-well type, (Falcon Inc.), and suspensions of various tumor cells, each containing about 1×10^4 cells in 0.5 ml, were added thereto and cultured in an incubator at 37° C. in 5% CO2 (95% being air). After” for “After”
as §4, §5

tumor cell = experiment: Effect of serum on tumor cell toxicity with time; assay type: cell-based; settings: presence of serum; 24-hour vs one-hour treatment
Experimental: as §1, §2, §3

Meth A tumor = experiment: Effectiveness on mouse solid tumor (methylcholanthrene-induced Meth A tumor); assay type: in vivo, Balb/C mouse; settings: injected into solid tumors, 0.1 ml, two administrations (once for each day); FIG. 3
Experimental: Anti-tumor actions of various proteases: Effectiveness on mouse solid tumor (i.e., effect on methylcholanthrene-induced tumor (Meth A tumor):
The diameters of the tumors after two administrations (once for each day) were measured.

tumors = experiment: Anti-tumor action of proteases (general statement); assay type: in vivo
[11] = system: α1 anti-trypsin, α2 antichymotrypsin, α2 macroglobulin, etc.; experiment: Inhibition of protease activity by protease-inhibiting substances in vivo

Molecule	Minimum effective concentration [1]	Minimum effective concentration [2]	Minimum effective concentration [3]	Minimum effective concentration [4]	Minimum effective concentration (Human fibroblast (WISH))	Minimum effective concentration [5]	Minimum effective concentration [6]	Minimum effective concentration [7]	Minimum effective concentration [8]	Minimum effective concentration [9]	Minimum effective concentration [10]	Minimum effective concentration (Rat neuroblastoma (C6))	Cytotoxicity in the presence of serum with time (reciprocal number of dilution for equivalent effect after 24-hour vs one-hour treatment) (HSG)	Cytotoxicity in the presence of serum with time (reciprocal number of dilution for equivalent effect after 24-hour vs one-hour treatment) (HeP2)	Cytotoxicity in the presence of serum with time (reciprocal number of dilution for equivalent effect after 24-hour vs one-hour treatment) (WISH)	Cytotoxicity in the presence of serum with time (reciprocal number of dilution for equivalent effect after 24-hour vs one-hour treatment) (HeLa)	Cytotoxicity in the presence of serum with time (reciprocal number of dilution for equivalent effect after 24-hour vs one-hour treatment) (C6)	action against tumor propagation (Meth A solid tumor) (Meth A tumor)	anti-tumor action / effect on propagation of tumors (tumors)	inhibition of activity by protease-inhibiting substances in vivo [11]	also measured
Trypsin	0.39 µg/mL	0.05 µg/mL	0.78 µg/mL	0.20 µg/mL	1.56 µg/mL	1.56 µg/mL	0.39 µg/mL	0.39 µg/mL	1.56 µg/mL	0.78 µg/mL	> 5.0 µg/mL	1.56 µg/mL	2-4	0-4	4	2-4	2	no substantial action against the tumor propagation	no anti-tumor action	completely inhibited	Cytotoxicity in the presence of serum with time (reciprocal number of dilution for equivalent effect after 24-hour vs one-hour treatment) (Vero): 2-4; Cytotoxicity in the presence of serum with time (reciprocal number of dilution for equivalent effect after 24-hour vs one-hour treatment) (HEL): 2; Cytotoxicity in the presence of serum with time (reciprocal number of dilution for equivalent effect after 24-hour vs one-hour treatment) (GMK): 2; cytotoxic effects in 24-hour treatment than one-hour treatment (tumor cell): no substantial enhancement
chymotrypsin	–	–	–	–	–	–	–	–	–	–	–	–	–	–	–	–	–	–	no anti-tumor action	completely inhibited	–
pepsin	–	–	–	–	–	–	–	–	–	–	–	–	–	–	–	–	–	no substantial action against the tumor propagation	no anti-tumor action	completely inhibited	–
Papain: protease of plant origin (protein, UniProt P00784 134-345, looked up) Papain: IPEYVDWRQKGAVTPVKNQGSCGSCWAFSAVVTIEGIIKIRTGNLNEYSEQELLDCDRRSYGCNGGYPWSALQLVAQYGIHYRNTYPYEGVQRYCRSREKGPYAAKTDGVRQVQPYNEGALLYSIANQPVSVVLEAAGKDFQLYRGGIFVGPCGNKVDHAVAAVGYGPNYILIKNSWGTGWGENGYIRIKRGTGNSYGVCGLYTSSFYPVKN	0.38 µg/mL	0.06 µg/mL	0.84 µg/mL	0.20 µg/mL	1.52 µg/mL	1.60 µg/mL	0.37 µg/mL	0.38 µg/mL	1.58 µg/mL	0.82 µg/mL	> 5.0 µg/mL	1.60 µg/mL	2-4	0-4	2	2-4	2	no substantial action against the tumor propagation	no anti-tumor action	completely inhibited	Cytotoxicity in the presence of serum with time (reciprocal number of dilution for equivalent effect after 24-hour vs one-hour treatment) (Vero): 2-4; Cytotoxicity in the presence of serum with time (reciprocal number of dilution for equivalent effect after 24-hour vs one-hour treatment) (HEL): 2; Cytotoxicity in the presence of serum with time (reciprocal number of dilution for equivalent effect after 24-hour vs one-hour treatment) (GMK): 2; cytotoxic effects in 24-hour treatment than one-hour treatment (tumor cell): no substantial enhancement
